Compound in experiment [1]: T1, C[C@H]1CNCCN1c1nccc(-c2noc3c2CCC[C@@]32CCCc3sc(N)c(C#N)c32)n1 [BI-2493]
The experiment in a line: 1 - AUC of viability dose-response curve (sensitivity) (fraction); higher = more sensitive. The note with it: 5 days. How it is done:
(§1)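 PRISM pooled barcoded cancer cell line viability screen (Broad Institute) with BI-2493 at 8 doses in threefold dilutions from 0.00457 to 10 µmol/L, 5-day treatment; curves fitted per cell line. IC50 is undefined (placeholder) for resistant lines. AUC is capped at 1, and sensitivity is reported as 1 − AUC.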

Compound in experiment [2]: T1, BI-2493
As to conditions: 5 days. How it is done:
as §1

For TTC709_SOFT_TISSUE, in the experiment with BI-2493 [1], the “1 - AUC of viability dose-response curve” value was 0.16. Moreover, in the experiment with BI-2493 [2], the “IC50 of cell viability” value is 4.96 µM.
For NCIH1092_LUNG, in that order: 0.131 and 3.99 µM.
For SNGM_ENDOMETRIUM, the “1 - AUC of viability dose-response curve” value in the experiment with BI-2493 [1] is 0.0648. Further, the “IC50 of cell viability” value with BI-2493 [2] was 7.12 µM.
The matching figures for “NALM6_HAEMATOPOIETIC_AND_LYMPHOID_TISSUE”: 0.0753 and 6.5 µM.
The matching figures for KE37_HAEMATOPOIETIC_AND_LYMPHOID_TISSUE: 0.0832 and 6.5 µM.
As for SNU886_LIVER, in the experiment with BI-2493 [1], the “1 - AUC of viability dose-response curve” value came out at 0.211. For the same test system, the “IC50 of cell viability” value with BI-2493 [2] is 5.03 µM.
For STM9101_SOFT_TISSUE, in that order: 0.0387 and more than 10 µM.
For BT474_BREAST, in that order: 0.0542 and 9.18 µM.
As for A1207_CENTRAL_NERVOUS_SYSTEM, the “1 - AUC of viability dose-response curve” value with BI-2493 [1] is 0.179. Also, the “IC50 of cell viability” value with BI-2493 [2] came out at 7.21 µM.
The matching figures for CAKI1_KIDNEY: 0.0185 and 9.29 µM.
For SNU201_CENTRAL_NERVOUS_SYSTEM, in the experiment with BI-2493 [1], the “1 - AUC of viability dose-response curve” value was found to be 0.0868. For the same test system, in the experiment with BI-2493 [2], the “IC50 of cell viability” value is more than 10 µM.
For LOVO_LARGE_INTESTINE, in that order: 0.246 and 1.17 µM.
For RT112_URINARY_TRACT, in that order: 0.281 and 1.22 µM.
The matching figures for SKNMC_BONE: 0.193 and 7.83 µM.
With T47D_BREAST, the “1 - AUC of viability dose-response curve” value with BI-2493 [1] came out at 0.0937. In the experiment with BI-2493 [2], the “IC50 of cell viability” value was 4.07 µM.
For RI1_HAEMATOPOIETIC_AND_LYMPHOID_TISSUE, in that order: 0.106 and 6.4 µM.
For LMSU_STOMACH, in that order: 0.103 and 5.54 µM.
The matching figures for RERFLCKJ_LUNG: 0.0525 and 8.19 µM.
As to 647V_URINARY_TRACT, in the experiment with BI-2493 [1], the “1 - AUC of viability dose-response curve” value was determined as 0.0938. The “IC50 of cell viability” value with BI-2493 [2] amounted to 7.05 µM.
For NCIH292_LUNG, in that order: 0.0643 and 5.7 µM.
For the test system RL_HAEMATOPOIETIC_AND_LYMPHOID_TISSUE, the “1 - AUC of viability dose-response curve” value in the experiment with BI-2493 [1] worked out at 0.0967. In the experiment with BI-2493 [2], the “IC50 of cell viability” value was 4.21 µM.
For KYSE180_OESOPHAGUS, in that order: 0.0499 and 7.63 µM.
The matching figures for CAPAN2_PANCREAS: 0.303 and 1.2 µM.
The matching figures for EKVX_LUNG: 0.146 and 7.44 µM.
As for MDAMB435S_SKIN, in the experiment with BI-2493 [1], the “1 - AUC of viability dose-response curve” value is 0.0956. Also, the “IC50 of cell viability” value in the experiment with BI-2493 [2] turned out to be 4.3 µM.
With NCIH1437_LUNG, the “1 - AUC of viability dose-response curve” value with BI-2493 [1] came out at 0.153. In the experiment with BI-2493 [2], the “IC50 of cell viability” value was determined as 4.73 µM.
For “KARPAS620_HAEMATOPOIETIC_AND_LYMPHOID_TISSUE”, in that order: 0.326 and 0.866 µM.
On to KD_SOFT_TISSUE, for which, in the experiment with BI-2493 [1], the “1 - AUC of viability dose-response curve” value came out at 0.114. Besides, in the experiment with BI-2493 [2], the “IC50 of cell viability” value was determined as 3.6 µM.
The matching figures for RL952_ENDOMETRIUM: 0.108 and 3.87 µM.
For MEL285_UVEA, in that order: 0.145 and 6.23 µM.
The matching figures for 8305C_THYROID: 0.00549 and 9.71 µM.
Turning to “BV173_HAEMATOPOIETIC_AND_LYMPHOID_TISSUE”, the “1 - AUC of viability dose-response curve” value with BI-2493 [1] worked out at 0.344. Also, the “IC50 of cell viability” value with BI-2493 [2] turned out to be 1.67 µM.
The matching figures for OAW42_OVARY: 0.104 and 5.86 µM.
Turning to PK8_PANCREAS, the “1 - AUC of viability dose-response curve” value with BI-2493 [1] is 0.161. Also, in the experiment with BI-2493 [2], the “IC50 of cell viability” value was determined as 2.17 µM.
The matching figures for PACADD161_PANCREAS: 0.185 and 5.87 µM.
ACCMESO1_PLEURA: the “1 - AUC of viability dose-response curve” value in the experiment with BI-2493 [1] turned out to be 0.00668. Moreover, the “IC50 of cell viability” value with BI-2493 [2] was 9.66 µM.
For CAL27_UPPER_AERODIGESTIVE_TRACT, in that order: 0.241 and 3.79 µM.
For the test system TTC642_SOFT_TISSUE, the “1 - AUC of viability dose-response curve” value with BI-2493 [1] was determined as 0.0875. The “IC50 of cell viability” value in the experiment with BI-2493 [2] amounted to 7.08 µM.
On to PECAPJ15_UPPER_AERODIGESTIVE_TRACT, for which the “1 - AUC of viability dose-response curve” value with BI-2493 [1] came to 0.125. In addition, the “IC50 of cell viability” value in the experiment with BI-2493 [2] was 5.35 µM.
For KATOIII_STOMACH, in that order: 0.183 and 4.3 µM.
For HT55_LARGE_INTESTINE, in that order: 0.195 and 4.03 µM.
For “ALLSIL_HAEMATOPOIETIC_AND_LYMPHOID_TISSUE”, in that order: 0.033 and 9.13 µM.
For the test system H103_UPPER_AERODIGESTIVE_TRACT, the “1 - AUC of viability dose-response curve” value in the experiment with BI-2493 [1] was determined as 0.0476. Besides, the “IC50 of cell viability” value with BI-2493 [2] came out at 7.57 µM.
For OVISE_OVARY, in that order: 0.105 and 4.17 µM.
For NCIH524_LUNG, in that order: 0.0829 and 5.44 µM.
For ISHIKAWAHERAKLIO02ER_ENDOMETRIUM, in that order: 0.174 and 6.65 µM.
769P_KIDNEY: the “1 - AUC of viability dose-response curve” value with BI-2493 [1] amounted to 0.0662. Further, the “IC50 of cell viability” value with BI-2493 [2] came out at 6.88 µM.
The matching figures for UMRC3_KIDNEY: 0.106 and 4.74 µM.
The matching figures for ZR751_BREAST: 0.1 and 4.57 µM.
Turning to SW156_KIDNEY, in the experiment with BI-2493 [1], the “1 - AUC of viability dose-response curve” value was 0.0358. In addition, the “IC50 of cell viability” value with BI-2493 [2] was 9.51 µM.
For “NOMO1_HAEMATOPOIETIC_AND_LYMPHOID_TISSUE”, in that order: 0.38 and 0.331 µM.
For NCIH1944_LUNG, in that order: 0.22 and 8.69 µM.
For TASK1_CENTRAL_NERVOUS_SYSTEM, in that order: 0.0438 and 7.76 µM.
As for SNU1214_UPPER_AERODIGESTIVE_TRACT, the “1 - AUC of viability dose-response curve” value with BI-2493 [1] came to 0.482. Besides, the “IC50 of cell viability” value with BI-2493 [2] was 0.175 µM.
As for CJM_SKIN, the “1 - AUC of viability dose-response curve” value with BI-2493 [1] was 0.11. In addition, the “IC50 of cell viability” value in the experiment with BI-2493 [2] was determined as 5.39 µM.
The matching figures for KYSE140_OESOPHAGUS: 0.0648 and more than 10 µM.
For SNU449_LIVER, the “1 - AUC of viability dose-response curve” value with BI-2493 [1] was found to be 0.0578. The “IC50 of cell viability” value with BI-2493 [2] turned out to be 7.3 µM.
Turning to NCIH23_LUNG, the “1 - AUC of viability dose-response curve” value in the experiment with BI-2493 [1] was determined as 0.199. Also, the “IC50 of cell viability” value with BI-2493 [2] was found to be 3 µM.
As for WM793_SKIN, the “1 - AUC of viability dose-response curve” value in the experiment with BI-2493 [1] turned out to be 0.0739. Besides, in the experiment with BI-2493 [2], the “IC50 of cell viability” value came out at 5.47 µM.
The matching figures for NCIH2009_LUNG: 0.149 and 5.8 µM.
The matching figures for SNUC4_LARGE_INTESTINE: 0.162 and 5.72 µM.
In the case of “SUDHL8_HAEMATOPOIETIC_AND_LYMPHOID_TISSUE”, the “1 - AUC of viability dose-response curve” value with BI-2493 [1] was 0.0165. In addition, in the experiment with BI-2493 [2], the “IC50 of cell viability” value was 9.1 µM.
Regarding CASKI_CERVIX, the “1 - AUC of viability dose-response curve” value in the experiment with BI-2493 [1] stood at 0.0572. The “IC50 of cell viability” value with BI-2493 [2] turned out to be 8.68 µM.
The matching figures for COLO783_SKIN: 0.176 and 5.22 µM.
For SNU761_LIVER, in that order: 0.297 and 2.4 µM.
The matching figures for S117_THYROID: 0.0998 and 4.21 µM.
As for NCIH1838_LUNG, the “1 - AUC of viability dose-response curve” value in the experiment with BI-2493 [1] came out at 0.0993. In the experiment with BI-2493 [2], the “IC50 of cell viability” value is more than 10 µM.
For the test system NCIH82_LUNG, in the experiment with BI-2493 [1], the “1 - AUC of viability dose-response curve” value was 0.0218. Also, the “IC50 of cell viability” value with BI-2493 [2] came to 8.8 µM.
The matching figures for KKU055_BILIARY_TRACT: 0.156 and 8.47 µM.
For SNU489_CENTRAL_NERVOUS_SYSTEM, in that order: 0.103 and 4.14 µM.
The matching figures for LC1SQSF_LUNG: 0.255 and more than 10 µM.
With HMC18_BREAST, the “1 - AUC of viability dose-response curve” value in the experiment with BI-2493 [1] worked out at 0.15. In the experiment with BI-2493 [2], the “IC50 of cell viability” value worked out at 4.86 µM.
For 22RV1_PROSTATE, in that order: 0.111 and 5.65 µM.
Regarding CAL120_BREAST, in the experiment with BI-2493 [1], the “1 - AUC of viability dose-response curve” value was 0.0763. Further, in the experiment with BI-2493 [2], the “IC50 of cell viability” value is more than 10 µM.
Turning to HPAFII_PANCREAS, the “1 - AUC of viability dose-response curve” value with BI-2493 [1] turned out to be 0.396. Further, in the experiment with BI-2493 [2], the “IC50 of cell viability” value came to 0.582 µM.
